The source of these data is patent US8163748B2, “s-Triazine compounds, pharmaceutical compositions and method of using the same” (New York University, priority 2007, dated 2012).

Assay [1] relates to Bacillus subtilis (ATCC 6633). Briefly: broth microdilution antibacterial testing. Format: cell-based. As to conditions: for MIC50: Bacillus subtilis, ATCC6633. Background: Dilution methods test growth across graded concentrations, often in twofold steps.
The nature of a further assay: calcein dye leakage. The following applies: ampicillin 70 μM. Format: biochemical. The source says:
FIG. 1 graphically depicts the results of the measurement of the ability of a triazine compound of the invention to induce leakage of calcein, entrapped within the interior of large unilamellar vesicles of model membrane POPG. The extent of leakage of encapsulated calcein was detected by its fluorescence at 515 nm, with 100% leakage calibrated by addition of 0.2% Triton X-100.
The method of preparation of dye-encapsulated vesicles has been reported in detail. Lasch, V.; Weissig, M. Brandl in Liposomes: a Practical Approach Eds.: Taylor, K. M. G.; Craig, D.Q.M. Oxford University Press, Oxford, 2003; pp. 10-12. The results are graphically presented in FIG. 1, which presents the results of calcein leakage induced by 1% Triton, C2 (50 μM), h9 (90 μM) and ampicillin (70 μM). The fraction of leakage was calculated from the fluorescence intensity at 515 nm, with 100% leakage calibrated by addition of 1% Triton X-100.

Values after ≈ are worked out from the molar mass of the structure shown.

As for `CN1CCCC1CCNc1nc(NC2CCCCCC2)nc(NC23CC4CC(CC(C4)C2)C3)n1` (stereo not drawn) [g9 (Library 5)], the MIC50 in assay [1] is 5.9 µM (≈ 2.76 µg/mL).
Same read-out and setting: to `CCCCN(CCCC)CCCNc1nc(NC2CC2)nc(NC23CC4CC(CC(C4)C2)C3)n1` [Compound A1] belongs 16.4 µM (≈ 7.7 µg/mL); to `CCCCN(CCCC)CCCNc1nc(NC2CCC2)nc(NC23CC4CC(CC(C4)C2)C3)n1` [A2 (Library 5)], 7.9 µM (≈ 3.82 µg/mL); to `CCCCN(CCCC)CCCNc1nc(NC2CC3CCC2C3)nc(NC23CC4CC(CC(C4)C2)C3)n1` (stereo not drawn) [A6 (Library 5)], 7.6 µM (≈ 3.98 µg/mL).
On the same count and under the same terms, to `CN(C)CCCNc1nc(NC2CCCCCC2)nc(NC23CC4CC(CC(C4)C2)C3)n1` [d9 (Library 5)] belongs 5.7 µM (≈ 2.52 µg/mL); to `CCCCN(CCCC)CCCNc1nc(NC23CC4CC(CC(C4)C2)C3)nc(N(CCCC)CCCC)n1` [Compound A9], 4.4 µM (≈ 2.38 µg/mL); to `CCN(CC)CCCNc1nc(NCc2ccc3c(c2)OCO3)nc(NC23CC4CC(CC(C4)C2)C3)n1` [C4 (Library 5)], 3.5 µM (≈ 1.78 µg/mL).
Same read-out and setting: to `NCCCNc1nc(NC2CCCCCC2)nc(NC23CC4CC(CC(C4)C2)C3)n1` [f9 (Library 5)] belongs 4.7 µM (≈ 1.94 µg/mL).
Take `CC1(C)S[C@@H]2[C@H](NC(=O)[C@H](N)c3ccccc3)C(=O)N2[C@H]1C(=O)O` [ampicillin]: in the assay “calcein dye leakage”, the “calcein dye leakage (in words)” value is reported as “neither ampicillin nor compound C2 caused dye leakage”.
Take `CCCCN(CCCC)CCCNc1nc(NC23CC4CC(CC(C4)C2)C3)nc(N(CCC)CC2CC2)n1` [A10 (Library 5)]: the MIC50 in assay [1] worked out at 5 µM (≈ 2.63 µg/mL). This lies in the single-digit micromolar range.
For the compound `CN(C)c1nc(NC2CCCCCC2)nc(NC23CC4CC(CC(C4)C2)C3)n1` [h9 (Library 5)], the “antimicrobial activity (in words)” value in assay [1] (library 5 compound used as control in dye leakage) is recorded as “little antimicrobial activity”.
`CCCCN(CCCC)CCCNc1nc(NC2CCCCCCCCCCC2)nc(NC23CC4CC(CC(C4)C2)C3)n1` [A5 (Library 5)] gave an MIC50 in assay [1] of 15.9 µM (≈ 9.48 µg/mL). Further, the “activity decrease comparing to ring size 7 or 8 compounds” value in assay [1] (library 5, ring size 12, B. subtilis) is reported as ~8 fold.
Take `CCN(CC)CCNc1nc(NC2CCCCCC2)nc(NC23CC4CC(CC(C4)C2)C3)n1` [c9 (Library 5)]: the MIC50 in assay [1] is 5.6 µM (≈ 2.55 µg/mL).
The same measure, in the same setting: to `NCCNc1nc(NC2CCCCCC2)nc(NC23CC4CC(CC(C4)C2)C3)n1` [e9 (Library 5)] belongs 5.9 µM (≈ 2.36 µg/mL); to `CCCCN(CCCC)CCCNc1nc(NC23CC4CC(CC(C4)C2)C3)nc(NC23CC4CC(CC(C4)C2)C3)n1` [A8 (Library 5)], 39 µM (≈ 22 µg/mL).
In assay [1], `CCN(CC)CCCNc1nc(NCc2ccccc2)nc(NC23CC4CC(CC(C4)C2)C3)n1` [Compound C1] yielded an MIC50 of 10.6 µM (≈ 4.91 µg/mL).
On the same count and under the same terms, to `CN(C)CCNc1nc(NC2CCCCCC2)nc(NC23CC4CC(CC(C4)C2)C3)n1` [b9 (Library 5)] belongs 7 µM (≈ 2.99 µg/mL).

What is called MIC50 is the lowest concentration that inhibits either 50% of growth or 50% of the strains tested, depending on the study. A low value points to higher susceptibility.
